In PubChem BioAssay AID270 (DTP/NCI, 2004):
Where “and” joins values, the source holds several entries; their conditions need not be identical. Equal entries are not always repeated. Records with an inconclusive call do not appear.

Tested on: BDF1 mice, s.c. Lewis lung carcinoma, T/C %
Assay: NCI In Vivo Anticancer Drug Screen. Data for tumor model Lewis Lung Carcinoma (subcutaneous) in B6D2F1 (BDF1) mice
How it was run: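 The value reflects a ratio in which the treated cohort's survival time or tumour size is compared against mice receiving only vehicle.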

[1] = endpoint: mean tumor weight, dose: 31.3 mg/kg/injection, schedule: Q01DX011 (ip), vehicle: saline, higher = larger tumour
[2] = endpoint: mean tumor weight, dose: 62.5 mg/kg/injection, schedule: Q01DX011 (ip), vehicle: saline, higher = larger tumour
[3] = endpoint: median survival time, dose: 100.0 mg/kg/injection, schedule: Q01DX009 (ip), vehicle: saline, higher = longer survival
[4] = endpoint: median survival time, dose: 200.0 mg/kg/injection, schedule: Q01DX009 (ip), vehicle: saline, higher = longer survival
[5] = endpoint: median survival time, dose: 400.0 mg/kg/injection, schedule: Q01DX009 (ip), vehicle: saline, higher = longer survival
[6] = endpoint: mean tumor weight, dose: 125.0 mg/kg/injection, schedule: Q01DX011 (ip), vehicle: saline, higher = larger tumour
[7] = endpoint: mean tumor weight, dose: 250.0 mg/kg/injection, schedule: Q01DX011 (ip), vehicle: saline, higher = larger tumour
[8] = endpoint: mean tumor weight, dose: 25.0 mg/kg/injection, schedule: Q01DX011 (ip), vehicle: saline, higher = larger tumour
[9] = endpoint: mean tumor weight, dose: 50.0 mg/kg/injection, schedule: Q01DX011 (ip), vehicle: saline, higher = larger tumour
[10] = endpoint: mean tumor weight, dose: 100.0 mg/kg/injection, schedule: Q01DX011 (ip), vehicle: saline, higher = larger tumour

CC(C)=CCC/C(C)=C/CO
T/C (endpoint: mean tumor weight, dose: 3.9 mg/kg/injection, schedule: Q01DX011 (ip), vehicle: saline, higher = larger tumour): 74 % of control | T/C (endpoint: mean tumor weight, dose: 7.8 mg/kg/injection, schedule: Q01DX011 (ip), vehicle: saline, higher = larger tumour): 85 % of control | T/C (endpoint: mean tumor weight, dose: 15.6 mg/kg/injection, schedule: Q01DX011 (ip), vehicle: saline, higher = larger tumour): 71 % of control | T/C [1]: 68 % of control and 73 % of control | T/C [2]: 105 % of control

O=C1C2CCCCC2C(=O)N1c1nccs1 (stereo not drawn)
T/C (endpoint: mean tumor weight, dose: 50.0 mg/kg/injection, schedule: Q01DX011 (ip), vehicle: carboxymethylcellulose (CMC), higher = larger tumour): 58 % of control | T/C (endpoint: mean tumor weight, dose: 100.0 mg/kg/injection, schedule: Q01DX011 (ip), vehicle: carboxymethylcellulose (CMC), higher = larger tumour): 71 % of control | T/C (endpoint: mean tumor weight, dose: 200.0 mg/kg/injection, schedule: Q01DX011 (ip), vehicle: carboxymethylcellulose (CMC), higher = larger tumour): 84 % of control

CC(=O)O[C@@H]1[C@@H](O)[C@H]2O[C@@H]3C=C(C)CC[C@]3(CO)[C@]1(C)[C@@]21CO1
T/C (endpoint: median survival time, dose: 1.25 mg/kg/injection, schedule: Q01DX009 (ip), vehicle: saline with Tween-80, higher = longer survival): 92 % of control | T/C (endpoint: median survival time, dose: 2.5 mg/kg/injection, schedule: Q01DX009 (ip), vehicle: saline with Tween-80, higher = longer survival): 100 % of control | T/C (endpoint: median survival time, dose: 5.0 mg/kg/injection, schedule: Q01DX009 (ip), vehicle: saline with Tween-80, higher = longer survival): 97 % of control

CC(=O)[C@H]1CC[C@H]2[C@@H]3C[C@H](C)C4=CC(=O)CC[C@]4(C)[C@H]3C(=O)C[C@]12C
T/C (endpoint: mean tumor weight (est.), dose: 100.0 mg/kg/injection, schedule: Q01DX009 (ip), vehicle: saline, higher = larger tumour): 65 % of control | T/C (endpoint: mean tumor weight (est.), dose: 200.0 mg/kg/injection, schedule: Q01DX009 (ip), vehicle: saline, higher = larger tumour): 35 % of control | T/C (endpoint: mean tumor weight (est.), dose: 400.0 mg/kg/injection, schedule: Q01DX009 (ip), vehicle: saline, higher = larger tumour): 37 % of control | T/C (endpoint: mean tumor weight (est.), dose: 800.0 mg/kg/injection, schedule: Q01DX009 (ip), vehicle: saline, higher = larger tumour): 60 % of control | T/C [3]: 103 % of control | T/C [4]: 110 % of control | T/C [5]: 113 % of control | T/C (endpoint: median survival time, dose: 800.0 mg/kg/injection, schedule: Q01DX009 (ip), vehicle: saline, higher = longer survival): 100 % of control

N#CCCN(Cc1ccccc1)C(N)=O
T/C (endpoint: mean tumor weight, dose: 0.5 mg/kg/injection, schedule: Q01DX011 (ip), vehicle: other, higher = larger tumour): 73 % of control | T/C (endpoint: mean tumor weight, dose: 1.0 mg/kg/injection, schedule: Q01DX011 (ip), vehicle: other, higher = larger tumour): 68 % of control | T/C (endpoint: mean tumor weight, dose: 2.0 mg/kg/injection, schedule: Q01DX011 (ip), vehicle: other, higher = larger tumour): 48 % of control | T/C (endpoint: mean tumor weight, dose: 4.0 mg/kg/injection, schedule: Q01DX011 (ip), vehicle: other, higher = larger tumour): 55 % of control

Clc1[nH]nc2ccccc12
T/C [6]: 80 % of control and 85 % of control | T/C [7]: 45 % of control and 67 % of control

OC(CBr)C(O)C(O)C(O)CBr (stereo not drawn)
T/C (endpoint: mean tumor weight (est.), dose: 75.0 mg/kg/injection, schedule: Q01DX009 (ip), vehicle: Klucel (hydroxypropylcellulose) (HPC), higher = larger tumour): 107 % of control | T/C (endpoint: mean tumor weight (est.), dose: 150.0 mg/kg/injection, schedule: Q01DX009 (ip), vehicle: Klucel (hydroxypropylcellulose) (HPC), higher = larger tumour): 92 % of control | T/C (endpoint: mean tumor weight (est.), dose: 300.0 mg/kg/injection, schedule: Q01DX009 (ip), vehicle: Klucel (hydroxypropylcellulose) (HPC), higher = larger tumour): 63 % of control | T/C [8]: 103 % of control | T/C [9]: 82 % of control | T/C [10]: 46 % of control and 51 % of control | T/C (endpoint: mean tumor weight, dose: 400.0 mg/kg/injection, schedule: Q01DX011 (ip), vehicle: saline, higher = larger tumour): 118 % of control | T/C [3]: 107 % of control | T/C (endpoint: median survival time, dose: 150.0 mg/kg/injection, schedule: Q01DX009 (ip), vehicle: Klucel (hydroxypropylcellulose) (HPC), higher = longer survival): 113 % of control | T/C [4]: 102 % of control | T/C [5]: 107 % of control

N#Cc1ccc(NC(=O)N(CCCl)N=O)cc1
T/C (endpoint: median tumor weight (est.), dose: 13.0 mg/kg/injection, schedule: Q01DX001 (ip), vehicle: Klucel (hydroxypropylcellulose) (HPC), higher = larger tumour): 83 % of control | T/C (endpoint: median tumor weight (est.), dose: 19.0 mg/kg/injection, schedule: Q01DX001 (ip), vehicle: Klucel (hydroxypropylcellulose) (HPC), higher = larger tumour): 118 % of control | T/C (endpoint: median tumor weight (est.), dose: 29.0 mg/kg/injection, schedule: Q01DX001 (ip), vehicle: Klucel (hydroxypropylcellulose) (HPC), higher = larger tumour): 109 % of control | T/C (endpoint: median tumor weight (est.), dose: 44.0 mg/kg/injection, schedule: Q01DX001 (ip), vehicle: Klucel (hydroxypropylcellulose) (HPC), higher = larger tumour): 73 % of control | T/C (endpoint: median tumor weight (est.), dose: 67.0 mg/kg/injection, schedule: Q01DX001 (ip), vehicle: Klucel (hydroxypropylcellulose) (HPC), higher = larger tumour): 39 % of control

Cc1ccccc1Cc1ccccc1
T/C (endpoint: mean tumor weight, dose: 78.0 mg/kg/injection, schedule: Q01DX011 (ip), vehicle: saline, higher = larger tumour): 121 % of control | T/C (endpoint: mean tumor weight, dose: 117.0 mg/kg/injection, schedule: Q01DX011 (ip), vehicle: saline, higher = larger tumour): 111 % of control | T/C (endpoint: mean tumor weight, dose: 175.0 mg/kg/injection, schedule: Q01DX011 (ip), vehicle: saline, higher = larger tumour): 85 % of control | T/C (endpoint: mean tumor weight, dose: 263.0 mg/kg/injection, schedule: Q01DX011 (ip), vehicle: saline, higher = larger tumour): 103 % of control

O=c1c(O)c(-c2ccc(O)c(O)c2)oc2cc(O)cc(O)c12
T/C (endpoint: mean tumor weight, dose: 12.5 mg/kg/injection, schedule: Q01DX011 (ip), vehicle: saline, higher = larger tumour): 86 % of control | T/C [8]: 71 % of control | T/C [9]: 61 % of control | T/C [10]: 100 % of control

CO[C@@]12[C@H](COC(N)=O)C3=C(C(=O)C(C)=C(N)C3=O)N1C[C@@H]1N[C@@H]12
T/C (endpoint: median survival time, dose: 0.12 mg/kg/injection, schedule: Q01DX009 (ip), vehicle: saline, higher = longer survival): 98 % of control | T/C (endpoint: median survival time, dose: 0.25 mg/kg/injection, schedule: Q01DX009 (ip), vehicle: Klucel (hydroxypropylcellulose) (HPC), higher = longer survival): 96 % of control | T/C (endpoint: median survival time, dose: 0.25 mg/kg/injection, schedule: Q01DX009 (ip), vehicle: saline, higher = longer survival): 98 % of control | T/C (endpoint: median survival time, dose: 0.5 mg/kg/injection, schedule: Q01DX009 (ip), vehicle: Klucel (hydroxypropylcellulose) (HPC), higher = longer survival): 96 % of control | T/C (endpoint: median survival time, dose: 0.5 mg/kg/injection, schedule: Q01DX009 (ip), vehicle: saline, higher = longer survival): 96 % of control | T/C (endpoint: median survival time, dose: 1.0 mg/kg/injection, schedule: Q01DX009 (ip), vehicle: saline, higher = longer survival): 103 % of control

O=[N+]([O-])c1ccc(/C=N/c2ncc(Br)s2)o1
T/C (endpoint: median survival time, dose: 6.25 mg/kg/injection, schedule: Q01DX009 (ip), vehicle: Klucel (hydroxypropylcellulose) (HPC), higher = longer survival): 89 % of control | T/C (endpoint: median survival time, dose: 12.5 mg/kg/injection, schedule: Q01DX009 (ip), vehicle: Klucel (hydroxypropylcellulose) (HPC), higher = longer survival): 109 % of control

CCCCS(=O)CC(CO)NC(=O)/C=C/c1c(C)[nH]c(=O)[nH]c1=O (stereo not drawn)
T/C (endpoint: median survival time, dose: 0.63 mg/kg/injection, schedule: Q01DX009 (ip), vehicle: water, higher = longer survival): 101 % of control | T/C (endpoint: median survival time, dose: 2.5 mg/kg/injection, schedule: Q01DX009 (ip), vehicle: water, higher = longer survival): 113 % of control | T/C (endpoint: median survival time, dose: 5.0 mg/kg/injection, schedule: Q01DX009 (ip), vehicle: water, higher = longer survival): 89 % of control

CCC(c1ccc(O)cc1)C(CC)c1ccc(OC)cc1 (stereo not drawn)
T/C (endpoint: mean tumor weight, dose: 4.0 mg/kg/injection, schedule: Q01DX011 (sc), vehicle: steriod suspending solution, higher = larger tumour): 60 % of control | T/C (endpoint: mean tumor weight, dose: 8.0 mg/kg/injection, schedule: Q01DX011 (sc), vehicle: steriod suspending solution, higher = larger tumour): 36 % of control | T/C (endpoint: mean tumor weight, dose: 16.0 mg/kg/injection, schedule: Q01DX011 (sc), vehicle: steriod suspending solution, higher = larger tumour): 33 % of control | T/C [1]: 23 % of control | T/C (endpoint: mean tumor weight, dose: 32.0 mg/kg/injection, schedule: Q01DX011 (sc), vehicle: steriod suspending solution, higher = larger tumour): 16 % of control | T/C [2]: 21 % of control | T/C [6]: 16 % of control | T/C [7]: 13 % of control

C[N+](C)(C)c1ncnc2nc[nH]c12
T/C (endpoint: mean tumor weight, dose: 15.0 mg/kg/injection, schedule: Q01DX011 (ip), vehicle: saline, higher = larger tumour): 87 % of control | T/C (endpoint: mean tumor weight, dose: 30.0 mg/kg/injection, schedule: Q01DX011 (ip), vehicle: saline, higher = larger tumour): 100 % of control | T/C (endpoint: mean tumor weight, dose: 60.0 mg/kg/injection, schedule: Q01DX011 (ip), vehicle: saline, higher = larger tumour): 55 % of control | T/C (endpoint: mean tumor weight, dose: 120.0 mg/kg/injection, schedule: Q01DX011 (ip), vehicle: saline, higher = larger tumour): 59 % of control

CCCCn1cnc2c(SC)nc(N)nc21
T/C (endpoint: mean tumor weight, dose: 30.0 mg/kg/injection, schedule: Q01DX011 (ip), vehicle: other, higher = larger tumour): 79 % of control | T/C (endpoint: mean tumor weight, dose: 60.0 mg/kg/injection, schedule: Q01DX011 (ip), vehicle: other, higher = larger tumour): 103 % of control | T/C (endpoint: mean tumor weight, dose: 120.0 mg/kg/injection, schedule: Q01DX011 (ip), vehicle: other, higher = larger tumour): 124 % of control

COC(=O)C1=C(C(=O)OC)C2CC3C4CC=C5CC(OC(C)=O)CCC5(C)C4CCC3(C)C2=C(OC(C)=O)C1 (stereo not drawn)
T/C (endpoint: mean tumor weight, dose: 62.5 mg/kg/injection, schedule: Q01DX011 (sc), vehicle: saline, higher = larger tumour): 105 % of control | T/C (endpoint: mean tumor weight, dose: 125.0 mg/kg/injection, schedule: Q01DX011 (sc), vehicle: saline, higher = larger tumour): 99 % of control | T/C (endpoint: mean tumor weight, dose: 250.0 mg/kg/injection, schedule: Q01DX011 (sc), vehicle: saline, higher = larger tumour): 97 % of control
